# pIC50: −log10 of the molar value. Read-outs that look alike come from different tables or passages of the source.
# What was measured:
# [1] = test system: naive CD4+ T cells cultured with allogeneic monocyte-derived dendritic cells; experiment: Mixed leukocyte reaction assay (FIG. 2); type: cell-based, human; settings: 300 µM ATP; for Rescue of proliferation of naive CD4 T cells in MLR / IFNγ production in MLR: Compound 2 50 nM; for Rescue of proliferation of naive CD4 T cells in MLR: Compound 11 500 nM; for IFNγ production in MLR: Compound 11 500 nM (FIG. 2B)
# Protocol: FIG. 2A depicts a bar graph of percent proliferation normalized to no ATP. Naive CD4^+ T cells were cultured with allogeneic monocyte-derived dendritic cells at a ratio of 10:1 for 96 h in the presence of 300 µM ATP as a source of adenosine and the molecules Compound 2 (50 nM), Compound 11 (500 nM) or concentration-matched DMSO. Proliferation of T cells was assessed by CFSE dilution and normalized to the level observed in T cells activated in the absence of ATP.
# FIG. 2B depicts two bar graphs, one showing TNF concentration (pg/mL), and the other showing IFNy (pg/mL). Experiment performed as described in FIG. 2A and supernatant sampled for analysis of cytokines by alphaLISA. **** = p < 0.0001; *** = p < 0.001; ** = p < 0.01 and * = p < 0.05; derived from one-way ANOVA with Tukey’s multiple comparisons test.
# PBMCs were isolated from buffy coats via centrifugation of fresh whole blood over Lymphoprep using SepMate-50 tubes (both from […] Technologies) according to the manufacturer’s instructions. Naive CD4^+ T cells were isolated from the PBMCs using the Naive CD4^+ T cell Isolation Kit II, human (Miltenyi Biotec) according to the manufacturer’s instructions and cryopreserved in FBS with 10% DMSO until required. CD14^+ monocytes were also isolated from the PBMC samples using CD14 MicroBeads, human (MiltenyiBiotec) according to the manufacturer’s instructions and used on the day of isolation.
# Monocytes were resuspended in RPMI (Lonza) with 10% FBS and cultured in a humidified incubator at 37° C. with 5% CO2 for 6 days in the presence of GM-CSF and IL-4 (R&D Systems), each at 50 ng/ml in 24 well plates. On day 3 of culture half of the medium was carefully removed and replaced with fresh medium containing 100 ng/ml of GM-CSF and IL-4.
# On day 6 of culture monocyte-derived dendritic cells (MoDCs) were harvested and washed into X-VIVO15 medium containing 5% human male AB serum (Biowest) and 1 mM sodium pyruvate (Lonza). Naive CD4^+ T cells from a different donor were thawed and CFSE-labelled as described above and washed into the same medium as the MoDCs. Finally, 1 × 10^4 MoDCs were cultured with 1 × 10^5 naive CD4^+ T cells in the presence of ATP (Sigma-Aldrich), uridine or uracil in 96 round well bottom plates for 72 h in a humidified incubator at 37° C. with 5% CO2.
# Analysis of proliferation of CD4 T cells via CSFE dilution was performed by flow cytometry using a BD LSR Fortessa with data analysis on FlowJo (BD Biosciences). Cytokines were analysed by alphaLISA (Perkin Elmer) according to the manufacturer’s instructions.
# [2] = test system: CMV peptide-specific CD8+ T cells; experiment: CMV antigen recall assay (FIG. 3); type: cell-based, human; settings: ATP 300 µM, 7 days, with IL-2, IL-7, nivolumab
# Protocol: FIG. 3 depicts a bar graph of percent tetramer. PBMCs from a healthy volunteer donor with previous history of CMV infection and known HLA-A*02 subtype were cultured for 7 days with a peptide ([…]) derived from the immunodominant CMV antigen pp65 alongside IL-2, IL-7 and the anti-PD1 antibody nivolumab. ATP was added to the cultures as a source of adenosine, alongside the ENT1 inhibitor molecules as indicated. Expansion of the peptide-specific CD8^+ T cell population was monitored via flow cytometry using […]-MHC-I tetramers linked with BV421. ** = p < 0.01; * = p < 0.05; derived from one-way ANOVA with Tukey’s multiple comparisons test from technical replicates in a single experiment.
# Frozen vials of PBMCs from a healthy volunteer donor with history of CMV infection and known HLA-A*02 subtype were purchased from ImmuneXperts. Cells were thawed and washed into X-VIVO15 medium containing 5% human serum and 1 mM sodium pyruvate and plated in 96 U bottom plates (1 × 10^6 cells per well). […] On day 7 of culture the cells were harvested and the frequency of CMV-peptide specific CD8^+ T cells was assessed via flow cytometry using […]-MHC-I tetramers (Tetramer Shop) by quantifying the frequency of tetramer^+ cells within the viable CD8^+ T cell gate.
# [3] = test system: stimulated primary human T cells; experiment: T cell proliferation assay (rescue of proliferation in presence of ATP, CFSE dilution); type: cell-based; settings: 100 uM ATP
Compound,Rescue of proliferation of naive CD4 T cells in MLR [1],IFNγ production in MLR [1],Rescue of proliferation of CMV peptide-specific CD8+ T cells [2],Production of TNF in MLR ([1]; Compound 2 50 nM (FIG. 2B)),"pIC50 ([3]; Condition A: X-VIVO15, read-out: T Cell proliferation (Condition A) IC50)","pIC50 ([3]; Condition B: X-VIVO15, 2% HSA and 0,1% AAG, read-out: (2) T Cell proliferation (Condition B) IC50)"
"COc1cc(C(=O)OC2CCCOc3cc(cc(OC)c3OC)C(=O)N(C)CCCN3CCCN(CC2)CC3)cc(OC)c1OC (stereo not drawn) [Compound 11, 74,75-dimethoxy-5-methyl-6-oxo-8-oxa-5-aza-1(1,4)-diazepana-7(1,3)-benzenacyclotetradecaphane-12-yl 3,4,5-trimethoxybenzoate]",weaker restoration,smaller effect,significant rescue of proliferation,,,
"COc1cc(C(=O)O[C@H]2CCCOc3cc(cc(OC)c3OC)C(=O)OCCCN3CCCN(CC2)CC3)cc(OC)c1OC [Compound 2, (12S)-74,75-dimethoxy-6-oxo-5,8-dioxa-1(1,4)-diazepana-7(1,3)-benzenacyclotetradecaphane-12-yl 3,4,5-trimethoxybenzoate]",near complete rescue,significant and consistent increase,significant rescue of proliferation,"clear restoration with Compound 2, even beyond the control level",6.30 to 7.70,6.30 to 7.70

# Source: patent publication US20230203058A1, “MACROCYCLIC DIAMINE DERIVATIVES AS ENT INHIBITORS FOR THE TREATMENT OF CANCERS, AND COMBINATION THEREOF WITH ADENOSINE RECEPTOR ANTAGONISTS” (ITEOS BELGIUM SA, priority 2020, published 2023)
